Experimental data from patent publication US4609733A, “3-keto-substituted-N-pyridylindoles” (Ciba-Geigy Corporation, priority 1984, dated 1986).

Tests used:
[1] = target: T1, prostaglandin cyclooxygenase (Bos taurus, UniProt O62664); test: in-vitro effect on prostaglandin cyclooxygenase; type: biochemical; conditions: read-out: IC50 for cyclooxygenase inhibition
T1 construct: from tissue; host or cells: bovine seminal vesicles (microsomes)
T1 sequence (O62664 25-600): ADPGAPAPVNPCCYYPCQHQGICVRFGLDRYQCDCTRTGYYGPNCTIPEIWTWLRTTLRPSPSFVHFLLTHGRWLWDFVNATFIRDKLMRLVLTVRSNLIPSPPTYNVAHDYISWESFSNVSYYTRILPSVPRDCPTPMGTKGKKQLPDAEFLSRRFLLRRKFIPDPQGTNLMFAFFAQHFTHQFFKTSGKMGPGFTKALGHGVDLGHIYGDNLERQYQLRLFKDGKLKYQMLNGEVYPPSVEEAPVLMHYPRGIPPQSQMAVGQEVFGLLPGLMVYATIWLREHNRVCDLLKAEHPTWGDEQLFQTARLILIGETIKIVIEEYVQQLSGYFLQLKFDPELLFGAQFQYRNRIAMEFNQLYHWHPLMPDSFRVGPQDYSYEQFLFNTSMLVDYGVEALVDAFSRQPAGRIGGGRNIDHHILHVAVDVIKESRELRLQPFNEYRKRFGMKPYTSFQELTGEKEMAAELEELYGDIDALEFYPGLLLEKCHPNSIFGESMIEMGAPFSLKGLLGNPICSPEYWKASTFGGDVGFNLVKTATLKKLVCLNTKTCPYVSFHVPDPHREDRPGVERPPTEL
Protocol: The in-vitro effect on prostaglandin cyclooxygenase is measured by a modification of the method of Takeguchi et al. described in Biochemistry 10, 2372 (1971); the testing procedure is described in U.S. Pat. No. 4,460,777.

thromboxane synthetase = target: T2, thromboxane synthetase (Homo sapiens, UniProt P24557); test: in vitro inhibition of the thromboxane synthetase enzyme; type: biochemical
T2 construct: from tissue; host or cells: human platelets (microsomes)
T2 sequence (P24557 1-533): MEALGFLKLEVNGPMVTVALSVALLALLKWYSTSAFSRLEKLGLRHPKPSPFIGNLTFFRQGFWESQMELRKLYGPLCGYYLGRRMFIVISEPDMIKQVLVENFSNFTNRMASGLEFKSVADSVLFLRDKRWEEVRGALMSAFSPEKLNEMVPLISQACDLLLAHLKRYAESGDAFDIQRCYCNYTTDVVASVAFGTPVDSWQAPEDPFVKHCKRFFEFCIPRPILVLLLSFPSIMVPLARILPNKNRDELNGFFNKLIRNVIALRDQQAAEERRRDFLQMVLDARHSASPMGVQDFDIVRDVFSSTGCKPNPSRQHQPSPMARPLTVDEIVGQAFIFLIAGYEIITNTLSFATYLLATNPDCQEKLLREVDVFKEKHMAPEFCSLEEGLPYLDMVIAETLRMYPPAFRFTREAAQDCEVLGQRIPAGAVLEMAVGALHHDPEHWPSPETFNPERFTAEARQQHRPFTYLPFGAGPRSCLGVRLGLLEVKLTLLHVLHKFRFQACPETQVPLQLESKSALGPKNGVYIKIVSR
Description: Res. Comm. 74, 1432 (1977). The testing procedure is essentially carried out as described in U.S. Pat. No. 4,460,777.

SMILES	IC50 [1] [mM]	IC50 (thromboxane synthetase) [nM]
O=C(O)CCCCc1cn(-c2cccnc2)c2ccccc12 [3-(4-carboxybutyl)-N-(3-pyridyl)indole, 3-(4-carboxybutyl)-N-(3-pyridyl)-indole]	> 1	
O=C(O)CCCC(=O)c1cn(-c2cccnc2)c2ccccc12 [Example 2, 3-(1-oxo-4-carboxybutyl)-N-(3-pyridyl)-indole]		~400
